Data published in patent US20170224840A1, “Drug Delivery System Comprising A Cancer Stem Cell-Targeted Carbon Nanotube, Preparation and Use Thereof” (Institute of Pharmacology and Toxicology Academy of …, priority 2014, published 2017).

Tests used:
[1] = system: CD44+ cells; assay: Apoptosis by Annexin V-FITC / propidium iodide flow cytometry; format: cell-based, human; conditions: drug concentration 5.0 μM, 12 h
Description: Flow cytometry was used to detect the apoptosis of gastric cancer stein cells via double-staining method with Annexin V-FITC and propidium iodide (PI), so as to observe the activities of various salinomycin dosage forms in induction of apoptosis of gastric cancer stem cells. CD44+ cells were seeded in a 6-well cell culture plate in an amount of 5×10^5 cells/well (2 ml), and incubated at 37° C. in a 5% CO2 cell incubator for 24 h; and separately added with PBS (pH 7.4, 0.1 M), blank SWNTs-CHI-HA, free salinomycin, SAL-SWNTs-CHI or SAL-SWNTs-CHI-HA (drug concentration: 5.0 μM), and continuously incubated at 37° C. for 12 h in a 5% CO2 cell incubator. The 6-well cell culture plate was removed from the cell culture incubator, the supernatant was carefully sucked up; the cells were washed three times with cold pH7.4 PBS, collected and suspended in 200 μl of binding buffer. 5 μl of Annexin V-FITC and 5 μl of propidium iodide were added in the dark, placed in the dark at room temperature for 15 min, and the apoptotic rate of the cells was detected by flow cytometry.

[2] = system: CD44− cells; assay: WST-8 proliferation inhibition, CD44- cells; format: cell-based, human; conditions: 48 h, series of concentrations
Description: (§1) CD44+ cells and CD44-cells sorted from human gastric cancer cell line AGS were seeded in an amount of 5000/well to 96-well plates, and incubated for 24 h at 37° C. in a 5% CO2 incubator. Free salinomycin in a series of concentrations, SAL-SWNTs-CHI, SAL-SWNTs-CHI-HA or blank SWNTs-CHI-HA were added to, and same amount of drug-free culture medium was used as blank control. After the addition, the 96-well plates were incubated for 48 h at 37° C. in a 5% CO2 incubator. After the completion of the cell culture, the plates were taken out and the culture media in the wells were removed. After washing with sterile PBS, 100 μL of PBS and 10 μL of WST-8 reagent were added to each well, and incubation was continued for 2 hours. Optical density (OD) was measured at the wavelength of 450 nm using a microplate reader. The toxicities of various salinomycin preparations on gastric cancer stem cells were evaluated by using the percentages of surviving cells (Survival rate, %) after the addition and culture. The percentages of surviving cells were calculated according to the following formula:
(§2) Inhibition rate=1−Cell survival rate.

[3] = system: gastric cancer stem cell spheres; assay: Inhibition of growth of gastric cancer stem cell spheres; format: cell-based, human; conditions: salinomycin 5 μM, 6th day after administration; PBS 433.3±6.0%
Description: (§3) CD44+ cell suspension was inoculated to a low-absorption 24-well plate in an amount of 5×10^4/well, and subjected to suspension culture with DMEM/F12 medium (1% N2, 2% B27, 10 ng/mL bFGF, 20 ng/mL EGF), incubated in a 5% CO2 incubator at 37° C. for 6 days. Medium was replaced every three days. The stem cell spheres with diameter of more than 200 μm were transferred to a 96-well culture plate, one sphere per well.
To the wells of 96-well culture plate, PBS, free salinomycin, SAL-SWNTs-CHI or SAL-SWNTs-CHI-HA were added, respectively, and the concentration of salinomycin in the above preparations was 5 μM. After addition, the 96-well plate was placed in a 37° C., 5% CO2 incubator and incubated continuously. The growth of tumor spheres under these conditions was observed. […] The formula for calculating the inhibition rate of tumor sphere growth was as follows: […], in which dmax was maximum diameter, dmin was minimum diameter; tumor sphere volume change rate %=(Vdayi/Vday0) 100%, in which Vdayi represents the volume of stem cell spheres on the i^th day after administration, and Vday0 represents the volume of stem cell spheres before administration.

[4] = cited from earlier work
[5] = system: AGS cells; assay: Effect on proportion of CD44+ cells in AGS cells (flow cytometry); format: cell-based, human; conditions: drug concentration 1.0 μM, 48 h; blank control 5.2±0.1%
Description: In order to measure the effects of various salinomycin dosage forms on the expression of CD44 in AGS cells, AGS cells were seeded in 6-well plates at 3×10^5 cells/well. After incubation for 24 h, AGS cells were incubated with free mitomycin, free salinomycin, SAL-SWNTs-CHI or SAL-SWNTs-CHI-HA (drug concentration was 1.0 μM) separately at 37° C. for 48 h. The blank medium was used as control. After incubation, the cells were washed three times with cold PBS, digested with 0.25% trypsin, and then pipetted with PBS to make cell suspensions. The expression rates of CD44 in AGS cells were detected by flow cytometry.

[6] = system: breast cancer stem cells; conditions: cited from earlier work
[7] = system: CD44+ cells; assay: WST-8 proliferation inhibition, CD44+ cells; format: cell-based, human; conditions: 48 h, series of concentrations
Description: as §1, §2

[8] = system: gastric cancer stem cell spheres; assay: Penetration of stem cell spheres by laser confocal microscopy; format: cell-based, human; conditions: FITC 5 uM, 12 hours
Description: as §3
Free FITC, FITC-SWNTs-CHI or FITC-SWNTs-CHI-HA were separately added to the wells of a 96-well plate containing stem cell spheres, and the concentration of FITC in the above preparations was 5 uM. After the addition, the 96-well plate was placed in a 37° C., 5% CO2 incubator to continue the culture for 12 hours; then the stem cell spheres were transferred to a glass-bottom dish, 5 stem cell spheres in each group, washed three times with fresh culture medium, and then 100 μl of fresh culture medium was added in each dish; for each stem cell sphere, it was light-cut into layers from the top to the center of the sphere at 10 μm intervals, and FITC fluorescence intensities of different layers were studied.

| Molecule | Apoptotic rate of gastric cancer stem cells [1] | Necrosis rate of gastric cancer stem cells [1] | Inhibitory effect on proliferation of CD44− cells [2] | Volume change rate of cell spheres [3] | Water solubility [4] | Proportion of CD44+ cells after treatment [5] | Effect of killing breast cancer stem cells relative to paclitaxel [6] | Inhibitory effect on proliferation of CD44+ cells [7] | FITC fluorescence in stem cell spheres (penetration) [8] |
| --- | --- | --- | --- | --- | --- | --- | --- | --- | --- |
| CC[C@@H](C(=O)[C@@H](C)[C@@H](O)[C@H](C)[C@@H]1O[C@@H]([C@@H](CC)C(=O)O)CC[C@@H]1C)[C@H]1O[C@]2(C=C[C@@H](O)[C@]3(CC[C@@](C)([C@H]4CC[C@](O)(CC)[C@H](C)O4)O3)O2)[C@H](C)C[C@@H]1C [Salinomycin] | 34.8% | 4.3% | strongest inhibitory effect | 179.5±5.8% | poor | 1.75±0.21% | more than 100 times | significant inhibitory effects | – |
| CO[C@@]12[C@H](COC(N)=O)C3=C(C(=O)C(C)=C(N)C3=O)N1C[C@@H]1N[C@@H]12 [mitomycin C] | – | – | – | – | – | 74.9±1.0% | – | – | – |
| fluorescein isothiocyanate [free FITC] | – | – | – | – | – | – | – | – | weakest fluorescence intensity |
